Results: patent publication US11078216B2, “Bisaryl amides as NRF2 activators” (GLAXOSMITHKLINE INTELLECTUAL PROPERTY DEVELOPMENT LIMITED, priority 2016, dated 2021)

System: NRF2 (NQO1 activity as marker for NRF2 activation), BEAS-2B cells
Assay: BEAS-2B NQO1 MTT Assay
Type: cell-based
Settings: Homo sapiens, EC50 of NQO1 specific activity induction, 48 hours incubation, read-out: EC50
Outline: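 BEAS-2B cells were exposed to compound for 48 h at 37° C, 5% CO2, then lysed. NQO1 activity was measured kinetically by MTT reduction at 570 nm over 30 minutes; EC50 came from 3-parameter fit of Delta OD/min versus log concentration.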

Molecule CC[C@H]1Cc2cccc(C(F)(F)F)c2CN(Cc2cc([C@@H](c3ccc4c(nnn4CC)c3C)C(C)(C)C(N)=O)ccc2C)C1 [Example 183, (S)-3-(1-ethyl-4-methyl-1H-benzo[d][1,2,3]triazol-5-yl)-3-(3-(((S)-4-ethyl-9-(trifluoromethyl)-4,5-dihydro-1H-benzo[c]azepin-2(3H)-yl)methyl)-4-methylphenyl)-2,2-dimethylpropanamide] has an EC50 of 100 to 1000 nM.
Work on CC[C@@H]1CN(Cc2cc([C@@H](c3ccc4c(nnn4CC)c3C)C(C)(C)C(N)=O)ccc2C)Cc2ncccc2O1 [Example 184, (S)-3-(3-(((R)-2-ethyl-2,3-dihydropyrido[2,3-f][1,4]oxazepin-4(5H)-yl)methyl)-4-methylphenyl)-3-(1-ethyl-4-methyl-1H-benzo[d][1,2,3]triazol-5-yl)-2,2-dimethylpropanamide] yielded an EC50 of 100 to 1000 nM.
CC[C@@H]1CN(Cc2cc([C@@H](CCc3cn(C4CCC4)nn3)C(C)(C)C(N)=O)ccc2Cl)S(=O)(=O)c2ccccc2O1 [Example 185, (R)-3-(4-chloro-3-(((R)-4-ethyl-1,1-dioxido-3,4-dihydro-2H-benzo[b][1,4,5]oxathiazepin-2-yl)methyl)phenyl)-5-(1-cyclobutyl-1H-1,2,3-triazol-4-yl)-2,2-dimethylpentanamide] was tested, and the EC50 was 100 to 1000 nM.
Molecule CC[C@@H]1CN(Cc2cc([C@@H](c3ccc4c(nnn4CC)c3C)C(C)(C)C(=O)Nc3cnc(CO[Si](C)(C)C(C)(C)C)nc3)ccc2C)S(=O)(=O)c2ccccc2O1 [Example 186, (S)—N-(2-(((tert-Butyldimethylsilyl)oxy)methyl)pyrimidin-5-yl)-3-(3-(((R)-4-ethyl-1,1-dioxido-3,4-dihydro-2H-benzo[b][1,4,5]oxathiazepin-2-yl)methyl)-4-methylphenyl)-3-(1-ethyl-4-methyl-1H-benzo[d][1,2,3]triazol-5-yl)-2,2-dimethylpropanamide] has an EC50 of 100 to 1000 nM.
Work on CC[C@@H]1CN(Cc2cc([C@@H](c3ccc4c(nnn4CC)c3C)C(C)(C)C(=O)Nc3cnc(C(C)(C)O[Si](C)(C)C(C)(C)C)nc3)ccc2C)S(=O)(=O)c2ccccc2O1 [Example 187, (S)-N-(2-(2-((tert-Butyldimethylsilyl)oxy)propan-2-yl)pyrimidin-5-yl)-3-(3-(((R)-4-ethyl-1,1-dioxido-3,4-dihydro-2H-benzo[b][1,4,5]oxathiazepin-2-yl)methyl)-4-methylphenyl)-3-(1-ethyl-4-methyl-1H-benzo[d][1,2,3]triazol-5-yl)-2,2-dimethylpropanamide] yielded an EC50 of 1000 to 10000 nM.
In the case of CC[C@@H]1CN(Cc2cc([C@@H](c3ccc4c(nnn4CC)c3C)C(C)(C)C(=O)Nc3cnc(CNC(=O)OC(C)(C)C)nc3)ccc2C)S(=O)(=O)c2ccccc2O1 [Example 188, tert-Butyl ((5-((S)-3-(3-(((R)-4-ethyl-1,1-dioxido-3,4-dihydro-2H-benzo[b][1,4,5]oxathiazepin-2-yl)methyl)-4-methylphenyl)-3-(1-ethyl-4-methyl-1H-benzo[d][1,2,3]triazol-5-yl)-2,2-dimethylpropanamido)pyrimidin-2-yl)methyl)carbamate], the EC50 is reported as 10 to 100 nM.
Work on CC[C@@H]1CN(Cc2cc([C@@H](c3ccc4c(nnn4CC)c3C)C(C)(C)C(=O)Nc3cnc(C(=O)N(C)C)nc3)ccc2C)S(=O)(=O)c2ccccc2O1 [Example 189, 5-((S)-3-(3-(((R)-4-Ethyl-1,1-dioxido-3,4-dihydro-2H-benzo[b][1,4,5]oxathiazepin-2-yl)methyl)-4-methylphenyl)-3-(1-ethyl-4-methyl-1H-benzo[d][1,2,3]triazol-5-yl)-2,2-dimethylpropanamido)-N,N-dimethylpyrimidine-2-carboxamide] yielded an EC50 of 100 to 1000 nM.
With CC[C@@H]1CN(Cc2cc([C@@H](c3ccc4c(nnn4CC)c3C)C(C)(C)C(=O)Nc3cnc(OCC(=O)OC)nc3)ccc2C)S(=O)(=O)c2ccccc2O1 [Example 190, Methyl 2-((5-((S)-3-(3-(((R)-4-ethyl-1,1-dioxido-3,4-dihydro-2H-benzo[b][1,4,5]oxathiazepin-2-yl)methyl)-4-methylphenyl)-3-(1-ethyl-4-methyl-1H-benzo[d][1,2,3]triazol-5-yl)-2,2-dimethylpropanamido)pyrimidin-2-yl)oxy)acetate] the EC50 was 100 to 1000 nM.
For CC[C@@H]1CN(Cc2cc([C@@H](c3ccc4c(nnn4CC)c3C)C(C)(C)C(=O)Nc3cnc(OCCNC(=O)OC(C)(C)C)nc3)ccc2C)S(=O)(=O)c2ccccc2O1 [Example 191, tert-Butyl (2-((5-((S)-3-(3-(((R)-4-ethyl-1,1-dioxido-3,4-dihydro-2H-benzo[b]-[1,4,5]oxathiazepin-2-yl)methyl)-4-methylphenyl)-3-(1-ethyl-4-methyl-1H-benzo[d][1,2,3]triazol-5-yl)-2,2-dimethylpropanamido)pyrimidin-2-yl)oxy)-ethyl)carbamate], the EC50 was 10 to 100 nM.
Molecule CC[C@@H]1CN(Cc2cc([C@@H](c3ccc4c(nnn4CC)c3C)C(C)(C)C(=O)Nc3cnc(OCCOC(C)(C)C)nc3)ccc2C)S(=O)(=O)c2ccccc2O1 [Example 192, (S)-N-(2-(2-(tert-Butoxy)ethoxy)pyrimidin-5-yl)-3-(3-(((R)-4-ethyl-1,1-dioxido-3,4-dihydro-2H-benzo[b][1,4,5]oxathiazepin-2-yl)methyl)-4-methylphenyl)-3-(1-ethyl-4-methyl-1H-benzo[d][1,2,3]triazol-5-yl)-2,2-dimethylpropanamide] has an EC50 of 10 to 100 nM.
For CC[C@@H]1CN(Cc2cc([C@@H](c3ccc4c(nnn4CC)c3C)C(C)(C)C(=O)Nc3cnc(OCCOC)nc3)ccc2C)S(=O)(=O)c2ccccc2O1 [Example 193, (S)-3-(3-(((R)-4-Ethyl-1,1-dioxido-3,4-dihydro-2H-benzo[b][1,4,5]oxathiazepin-2-yl)methyl)-4-methylphenyl)-3-(1-ethyl-4-methyl-1H-benzo[d][1,2,3]triazol-5-yl)-N-(2-(2-methoxyethoxy)pyrimidin-5-yl)-2,2-dimethylpropanamide], the EC50 was 1 to 10 nM.
In the case of CC[C@@H]1CN(Cc2cc([C@@H](c3ccc4c(nnn4CC)c3C)C(C)(C)C(=O)Nc3cnc(CO)nc3)ccc2C)S(=O)(=O)c2ccccc2O1 [Example 194, (S)-3-(3-(((R)-4-Ethyl-1,1-dioxido-3,4-dihydro-2H-benzo[b][1,4,5]oxathiazepin-2-yl)methyl)-4-methylphenyl)-3-(1-ethyl-4-methyl-1H-benzo[d][1,2,3]triazol-5-yl)-N-(2-(hydroxymethyl)pyrimidin-5-yl)-2,2-dimethylpropanamide], the EC50 is reported as 10 to 100 nM.
In the case of CC[C@@H]1CN(Cc2cc([C@@H](c3ccc4c(nnn4CC)c3C)C(C)(C)C(=O)Nc3cnc(C(=O)O)nc3)ccc2C)S(=O)(=O)c2ccccc2O1 [Example 195, 5-((S)-3-(3-(((R)-4-Ethyl-1,1-dioxido-3,4-dihydro-2H-benzo[b][1,4,5]oxathiazepin-2-yl)methyl)-4-methylphenyl)-3-(1-ethyl-4-methyl-1H-benzo[d][1,2,3]triazol-5-yl)-2,2-dimethylpropanamido)pyrimidine-2-carboxylic Acid], the EC50 is reported as 10 to 100 nM.
With CC[C@@H]1CN(Cc2cc([C@@H](c3ccc4c(nnn4CC)c3C)C(C)(C)C(=O)Nc3cnc(CN)nc3)ccc2C)S(=O)(=O)c2ccccc2O1 [Example 196, (S)—N-(2-(Aminomethyl)pyrimidin-5-yl)-3-(3-(((R)-4-ethyl-1,1-dioxido-3,4-dihydro-2H-benzo[b][1,4,5]oxathiazepin-2-yl)methyl)-4-methylphenyl)-3-(1-ethyl-4-methyl-1H-benzo[d][1,2,3]triazol-5-yl)-2,2-dimethylpropanamide] the EC50 was 100 to 1000 nM.
CC[C@@H]1CN(Cc2cc([C@@H](c3ccc4c(nnn4CC)c3C)C(C)(C)C(=O)Nc3cnc(OCC(=O)O)nc3)ccc2C)S(=O)(=O)c2ccccc2O1 [Example 197, 2-((5-((S)-3-(3-(((R)-4-Ethyl-1,1-dioxido-3,4-dihydro-2H-benzo[b][1,4,5]oxathiazepin-2-yl)methyl)-4-methylphenyl)-3-(1-ethyl-4-methyl-1H-benzo[d][1,2,3]triazol-5-yl)-2,2-dimethylpropanamido)pyrimidin-2-yl)oxy)acetic Acid] showed an EC50 of 10 to 100 nM.
Molecule CC[C@@H]1CN(Cc2cc([C@@H](c3ccc4c(nnn4CC)c3C)C(C)(C)C(=O)Nc3cnc(OCCN)nc3)ccc2C)S(=O)(=O)c2ccccc2O1 [Example 198, (S)—N-(2-(2-Aminoethoxy)pyrimidin-5-yl)-3-(3-(((R)-4-ethyl-1,1-dioxido-3,4-dihydro-2H-benzo[b][1,4,5]oxathiazepin-2-yl)methyl)-4-methylphenyl)-3-(1-ethyl-4-methyl-1H-benzo[d][1,2,3]triazol-5-yl)-2,2-dimethylpropanamide] has an EC50 of 10 to 100 nM.
Work on CC[C@@H]1CN(Cc2cc([C@@H](c3ccc4c(nnn4CC)c3C)C(C)(C)C(=O)Nc3cnc(OCCO)nc3)ccc2C)S(=O)(=O)c2ccccc2O1 [Example 199, (S)-3-(3-(((R)-4-Ethyl-1,1-dioxido-3,4-dihydro-2H-benzo[b][1,4,5]oxathiazepin-2-yl)methyl)-4-methylphenyl)-3-(1-ethyl-4-methyl-1H-benzo[d][1,2,3]triazol-5-yl)-N-(2-(2-hydroxyethoxy)pyrimidin-5-yl)-2,2-dimethylpropanamide] yielded an EC50 of 10 to 100 nM.
For CC[C@@H]1CN(Cc2cc([C@@H](c3ccc4c(nnn4CC)c3C)C(C)(C)C(=O)NCC(=O)O)ccc2C)S(=O)(=O)c2ccccc2O1 [Example 200, 2-((S)-3-(3-(((R)-4-ethyl-1,1-dioxido-3,4-dihydro-2H-benzo[b][1,4,5]oxathiazepin-2-yl)methyl)-4-methylphenyl)-3-(1-ethyl-4-methyl-1H-benzo[d][1,2,3]triazol-5-yl)-2,2-dimethylpropanamido)acetate], the EC50 was 10 to 100 nM.
Molecule CC[C@@H]1CN(Cc2cc([C@@H](c3ccc4c(nnn4CC)c3C)C(C)(C)C(=O)NCCC(=O)O)ccc2C)S(=O)(=O)c2ccccc2O1 [Example 201, 3-((S)-3-(3-(((R)-4-ethyl-1,1-dioxido-3,4-dihydro-2H-benzo[b][1,4,5]oxathiazepin-2-yl)methyl)-4-methylphenyl)-3-(1-ethyl-4-methyl-1H-benzo[d][1,2,3]triazol-5-yl)-2,2-dimethylpropanamido)propanoic acid] has an EC50 of 100 to 1000 nM.
